Results from patent US6921806B2, “Plant growth factor” (Kyowa Hakko Kogyo Co. Ltd., priority 1995, dated 2005).
[ ]: non-standard residue; d: D form. sY = N[C@@H](Cc1ccc(OS(=O)(=O)O)cc1)C(=O)O

System: single asparagus cells
Assay: bioassay of the plant growth factors: colony formation frequency of incubated single asparagus cells
Type: cell-based, Asparagus officinalis L.
Settings: peptide made by synthesizer and enzymatic sulfation
Protocol: Single asparagus cells, as obtained according to the method of Example 4, were implanted in the media, as prepared by the method of Example 5, and incubated with the present plant growth factor in the media. The influence of the plant growth factor on the proliferation of the incubated asparagus cells was determined by measuring the change in the colony formation frequency in each medium. Cells were incubated in a 24-well microtiter plate (IWAKI 3820-024). To each well of the microtiter were added 250 μl of a suspension of single asparagus cells as prepared at a cell density of 2-fold the intended final cell density, 125 μl of the liquid medium having a concentration of 4-fold the intended final concentration, and 125 μl of sterilized distilled water or 125 μl of CM as obtained in Example 6, sterilized through filtration (ADVANTEC DISMIC-13 cp, 0.20 μm) and diluted just before use, and fully stirred. Then, the plates were sealed with vinyl tape in order to prevent vaporization, in which the cells were incubated in the dark at 28° C. with shaking at 120 rpm (TAITEC BR-300L). […] On the basis of the data thus obtained for 3 wells or more, the colony formation frequency (C) and the cell viability (L) were calculated according to the following equations. […] The colony formation frequency for the asparagus cells at each CM concentration was determined. […]

H-[sY]I[sY]TQ-OH [compound (I-1)]
biological activity of the synthesized peptide compared with isolated compound (I-1): exhibited the biological activity at the same concentrations
